# Assay results reported in patent US9707283B2, “Genetically modified babesia parasites expressing protective tick antigens and uses thereof” (The United States of America as represented by the …, priority 2007, dated 2017).
# Assays:
# B. bovis Mo7 strain = assay: Blasticidin inhibition of B. bovis growth in in vitro cultures; type: cell-based, Babesia bovis
# Experimental: B. bovis parasites of the Mo7 strain were cultured in ˜1 ml cultures in 24 well plates containing 10% bovine red blood cells. Triplicate wells were cultured with or without increasing amounts of blasticidin added to the culture media at […], 2.4, and 4.8 μg/ml, prepared from a 5 mg/ml stock solution of blasticidin (Invitrogen) in sterile water, for three consecutive days. Culture media was replaced daily. The percentage of parasitized erythrocytes (ppe) was estimated by microscopic counting of Diff-Quik (Dade Behring) stained slides as described (Suarez and McElwain, (2008) Exp Parasitol. 118: 498-504). Percentage B. bovis inhibition was calculated by dividing the mean ppe in triplicate blasticidin treated wells by the mean ppe in triplicate control wells grown in the absence of blasticidin, and multiplying by 100.
# To determine whether B. bovis growth could be inhibited with blasticidin, and to estimate the concentration of blasticidin appropriate for establishing a blasticidin/blasticidin deaminase (bsd) transfection system, B. bovis Mo7 strain parasites were cultured in the presence of varying concentrations of blasticidin ranging from 0 to 5 μg/ml in triplicate wells. The percentage of parasitized erythrocytes (ppe) in each well was determined for the first three days after splitting the cultures in each well to a starting ppe of 0.5%. […] Subsequent stable transfection experiments were performed using either 0.3 or 0.6 μg/ml, blasticidin.
# [1] = system: B. bovis control parasites transfected with pBS; assay: Growth curves of mock pBS-transfected control parasites with blasticidin; type: cell-based, Babesia bovis; conditions: blasticidin at 6.4 μg/ml
# Experimental: (§1) Growth characteristics of the blasticidin selected parasite line 1-2-124 were examined and compared with mock pBS-transfected control parasites in the presence or absence of 6.4 μg/ml blasticidin. […] In addition, no differences were observed between growth rates of parasite cell line 1-2-124 and control parasites in the absence of blasticidin.
# [2] = system: B. bovis transfected parasite line 1-2-124 (gfp-bsd); assay: Growth curves of blasticidin selected parasite line 1-2-124 with blasticidin; type: cell-based, Babesia bovis; conditions: blasticidin at 6.4 μg/ml, 10 times higher than used for original selection
# Experimental: as §1
# [3] = system: Plasmodium falciparum parasites; conditions: calculated for Plasmodium falciparum parasites, given for comparison; cited from earlier work
compound,measurement,setting,value
CN(CC[C@H](N)CC(=O)N[C@H]1C=C[C@H](n2ccc(N)nc2=O)O[C@@H]1C(=O)O)C(=N)N [blasticidin],50% inhibitory concentration of blasticidin (IC50),"B. bovis Mo7 strain; Mo7 strain, in vitro culture, after three days of drug selection, percentage of parasitized erythrocytes",~0.4 µg/mL
same,concentration of blasticidin resulting in negligible parasite growth,"B. bovis Mo7 strain; Mo7 strain, in vitro culture, three days",0.64 to 1.25 µg/mL
same,infected erythrocytes in stained slides,"B. bovis Mo7 strain; blasticidin dose of 5 μg/ml, after three days in culture",No B. bovis infected erythrocytes could be detected
same,parasite growth in the presence of blasticidin,[1],not able to grow
same,parasite growth with or without blasticidin,[2],able to grow at similar rates
same,IC50,[3],0.35 µg/mL
